# Source: patent US20120010075A1 (priority 2009, published 2012)
# Where two headings read alike, the source gives them in different places.
# Legend:
# [1] = test system: Leptosphaeria nodorum (LEPTNO); assay: In vitro fungitoxicity of hydrazones with and without copper towards Leptosphaeria nodorum (Example 26); type: cell-based; details: 72 h at 25° C.; for inhibition of growth at 0.05 µg/mL: Parastagonospora nodorum, 72 h, copper-minus medium, read-out: LEPTNO % Inhn. Minus Copper Observed
# Phytophthora infestans = type: in vivo, Phytophthora infestans on tomato; details: applied 24 h before inoculation, assessed 7 days after inoculation
# [2] = test compound Concn. 0.05 μg/mL
# [3] = copper-plus medium (CuCl2 10 μM), test compound Concn. 0.05 μg/mL
# [4] = hydrazone 50 ppm with 50 μM CuCl2.2H2O, tomato late blight
# [5] = compound 0.05 μg/mL, copper-plus medium (CuCl2.2H2O)
# [6] = hydrazone 50 ppm + 50 μM CuCl2.2H2O, tomato
SMILES,"inhibition of growth at 0.05 µg/mL [1, 2] [%]","LEPTNO % Inhn. Plus Copper Observed [1, 3] [%]",TLB % Control (Phytophthora infestans; [4]) [%],melting point [°C],inhibition of growth at 0.05 µg/mL ([1]; compound 0.05 μg/mL) [%],"LEPTNO % Inhn. Plus Copper Observed [1, 5] [%]",TLB % Control (Phytophthora infestans; [6]) [%]
C/C(=N\NC(=O)c1ccccc1Cl)c1cc(C(F)(F)F)ccc1O [Example 531],0,97.3,80.0,189 to 191,,,
C/C(=N\NC(=O)c1cccc(C)c1)c1ccc(Cl)cc1O [Example 253],,,,210 to 211,4.9,98.0,14.0
CSc1cc(Br)c(O)c(/C=N/NC(=O)c2ccccc2)c1 [Example 298],0.7,95.0,74.6,207 to 209,,,
C/C(=N\NC(=O)c1ccc(C)cc1)c1cc(C)ccc1O [Example 314],0,97.7,8.8,206 to 208,,,
O=C(N/N=C/c1ccc(Cl)c(Cl)c1O)c1ccccc1O [Example 362],11.1,97.2,97.0,280 to 282,,,
O=C(N/N=C/c1cc(Cl)ccc1O)c1cccc([N+](=O)[O-])c1 [Example 10],,,,224 to 227,6.9,97.2,96.0
O=C(N/N=C/c1cc(Cl)ccc1O)c1cccc(F)c1 [Example 420],11.4,97.5,100.0,205 to 224,,,
COc1ccc(/C(C)=N/NC(=O)c2ccccc2Br)c(O)c1 [Example 476],0,93.9,69.0,205 to 206,,,
O=C(N/N=C/c1cc(C(F)(F)F)cc(C(F)(F)F)c1O)c1ccc(F)cc1 [Example 335],10.2,96.8,95.0,226 to 228,,,
N#Cc1cc(Br)c(O)c(/C=N/NC(=O)c2ccccc2)c1 [Example 306],0,95.2,35.0,290 to 291,,,
O=C(N/N=C(\CCc1ccccc1)c1ccccc1O)c1c(Cl)cccc1Cl [Example 45],,,,204 to 208,0,96.2,49.0
O=C(N/N=C/c1cc(C(F)(F)F)cc(Cl)c1O)c1cccc(Cl)c1 [Example 325],0,95.7,100.0,210 to 212,,,
Cc1ccc(C(=O)N/N=C/c2cc(Cl)cc(C(F)(F)F)c2O)cc1 [Example 377],29.9,97.6,100.0,276 to 278,,,
C/C(=N\NC(=O)c1ccccc1)c1cc(C)ccc1O [Example 311],3.3,98.3,37.0,197 to 199,,,
O=C(N/N=C/c1cc(Cl)cc(Br)c1O)c1cc(Cl)ccc1Cl [Example 196],,,,169 to 173,4.4,97.7,94.5
O=C(N/N=C/c1cc(Cl)cc(Cl)c1O)c1cccc(Oc2ccccc2)c1 [Example 46],,,,170 to 171,20.5,95.9,72.7
COc1ccc(/C(C)=N/NC(=O)c2ccc(C(F)(F)F)cc2)c(O)c1 [Example 472],0,97.7,49.0,251 to 252,,,
C/C(=N\NC(=O)c1ccccc1Cl)c1cc(C)ccc1O [Example 315],2.7,95.8,18.0,154 to 158,,,
O=C(N/N=C/c1ccc(Cl)c(Cl)c1O)c1ccccc1C(F)(F)F [Example 363],4.3,94.7,92.0,209 to 213,,,
Cc1ccc(C(=O)N/N=C/c2c(C(F)(F)F)ccc(Cl)c2O)c(O)c1 [Example 457],6.7,100.0,100.0,258 to 260,,,
O=C(N/N=C/c1cc(C(F)(F)F)ccc1O)c1ccc(F)cc1 [Example 438],0,94.2,98.0,229 to 231,,,

SMILES,"inhibition of growth at 0.05 µg/mL [1, 2] [%]","LEPTNO % Inhn. Plus Copper Observed [1, 3] [%]",TLB % Control (Phytophthora infestans; [4]) [%],melting point [°C],inhibition of growth at 0.05 µg/mL ([1]; compound 0.05 μg/mL) [%],"LEPTNO % Inhn. Plus Copper Observed [1, 5] [%]",TLB % Control (Phytophthora infestans; [6]) [%]
O=C(N/N=C/c1cc(Cl)cc(C(F)(F)F)c1O)c1cccc(Cl)c1 [Example 380],36.1,98.3,100.0,228 to 229,,,
C/C(=N\NC(=O)c1ccccc1Cl)c1cc(Cl)ccc1O [Example 508],9.4,97.1,92.0,210 to 217,,,
N#Cc1ccc(C(=O)N/N=C/c2cc(Cl)cc(Cl)c2O)cc1 [Example 310],2.4,96.6,64.0,234 to 270,,,
O=C(N/N=C/c1ccc(Cl)cc1O)c1cccc(F)c1 [Example 389],7.7,97.6,95.0,218 to 222,,,
COc1ccc(/C(C)=N/NC(=O)c2ccc(C)cc2)c(O)c1 [Example 283],,,,206 to 207,0,95.9,67.0
O=C(N/N=C/c1c(Cl)ccc(Cl)c1O)c1ccccc1 [Example 247],,,,204 to 205,10.1,94.0,84.7
COc1ccc(C(=O)N/N=C(\C)c2cc(Cl)cc(Cl)c2O)cc1 [Example 469],1,97.8,95.0,226 to 227,,,
O=C(N/N=C/c1cc(Br)cc(Br)c1O)c1cc(Cl)cc(Cl)c1 [Example 117],,,,267 to 269,28.8,98.5,89.5
COc1ccc(/C(C)=N/NC(=O)c2cccc(Cl)c2)c(O)c1 [Example 285],,,,212 to 214,3.4,97.5,51.0
Cc1cccc(/C=N/NC(=O)c2ccccc2)c1O [Example 232],,,,186 to 188,2.3,97.5,57.6
O=C(N/N=C/c1cc(Cl)cc(Cl)c1O)c1ccc2ccccc2c1O [Example 488],20.1,92.6,72.0,276 to 278,,,
COc1cccc(C(=O)N/N=C/c2cc(Br)cc(Br)c2O)c1C [Example 108],,,,188 to 189,21.3,97.6,50.9
C/C(=N\NC(=O)c1ccccc1Cl)c1cccc([N+](=O)[O-])c1O [Example 272],,,,196 to 205,2,98.1,37.0
COc1ccc(C(=O)N/N=C(\C)c2cc(C(F)(F)F)ccc2O)cc1 [Example 534],5.1,95.7,61.0,228 to 231,,,
O=C(N/N=C/c1cc(Cl)cc(C(F)(F)F)c1O)c1cccc([N+](=O)[O-])c1 [Example 382],19.3,98.5,96.0,235 to 237,,,
Cc1ccc(C(=O)N/N=C/c2cccc(Cl)c2O)c(O)c1 [Example 433],10.8,97.8,100.0,258 to 266,,,
O=C(N/N=C/c1cc(Cl)cc(Cl)c1O)c1cc(Br)ccc1Cl [Example 98],,,,191 to 192,16.8,98.1,79.7
COc1cccc(/C(C)=N/NC(=O)c2ccccc2Br)c1O [Example 467],0,95.7,80.0,245 to 247,,,
COc1cccc(/C(C)=N/NC(=O)c2ccccc2O)c1O [Example 468],6.2,98.1,92.0,255 to 257,,,
COc1ccc(O)c(C(=O)N/N=C(\C)c2cc(Cl)cc(Cl)c2O)c1 [Example 478],0.7,94.7,65.0,327 to 331,,,
